In PMC4738305, “Metabolism and Disposition of Aditoprim in Swine, Broilers, Carp and Rats” (Scientific Reports, 2016):
Values joined by “and” are separate entries in the source; they are usually repeats but may differ in a detail not shown here. Equal values may be shown once.

Experiment: Tissue distribution and elimination of total radioactivity (total residues) after oral ^3H-ADP for 7 d
Assay type: in vivo, carp
Parameters: Ke of total residues: unit not given here
Method: (0.1 Ci/g) through oral gavage for 7 consecutive days. All the animals were housed on the basis of their group in the cages or aquaria throughout the whole study period. A group of animals was slaughtered through exsanguination under diethyl ether inhalation of anesthesia in the period of 6 h, 1, 3, 7, 14, and 21 d after the administration. The blood samples were immediately collected into the heparinized tubes and was centrifuged at 1920 × g at 4 °C for 10 min to obtain the plasma. The tissues from the heart, liver, spleen, lung, kidney, craw (broilers), stomach, intestine, fat, skin, muscle, thymus, pancreas, bile, bladder, hair (scale for carp), genital gland, adrenal glands, swim bladder (carp), brain, lymph, and bursa (broilers) were carefully excised and collected. The tissues were thoroughly rinsed with the deionized water to remove the residuary blood, blotted to dryness, and finally to perform the homogenization. In order to avoid cross-contamination the dissecting instruments were washed during the tissue procurements. The blank tissues were collected in order to provide control matrices. The total radioactivity levels in each sample were determined through LSC. The samples extracted from the plasma, bile, and tissues of the liver, kidney, muscle, and fat/skin were analyzed through LC/MS-IT-TOF and v. ARC radiometric detection for metabolite profiling.
Measurements of the total radioactivity in each sample were conducted by Packard Tri-Carb 2900 TR liquid scintillation counter (PerkinElmer Life and Analytical Sciences). The detection time was 10 min for two cycles. The scintillation counter data were automatically corrected for counting efficiency by instrument-stored quench curve which was drawn with a series of sealed quenched […] standards. The actual radioactivity of each sample was calculated by subtracting the background value form the mean radioactivity in two blank samples. All the samples were analyzed in duplicate if the sample size allowed this. If the results were differed by more than 10% from the mean value, the samples were reanalyzed. The samples with LSC counts less than 2-fold of the level of the running background were considered to contain insufficient radioactivity for reliable quantification.
Aliquots of liquid samples (urine, plasma, bile and raised water, 200 μL) were mixed with 10 mL of Ultima Gold^TM scintillation fluid for the direct analysis by LSC. Aliquots of solid samples (feces and tissues, 200 mg) were digested overnight with 2 mL tissue solubilizer at 50 °C in a shaking water bath, followed by adding 200 μL of 0.1 mol/L EDTA-Na and 200 μL of 30% H2O2, and was bathed at 50 °C for 2 h to bleach. The obtained transparent liquid were mixed with 10 mL of scintillation fluid and finally were counted by LSC. The digestion efficiency was determined by using the blank samples spiked with ^3 H standard for digestion, and the measured radioactivity content in the digested samples were adjusted by using the digestion efficiency values.
The concentrations of ADP and/or its metabolites were analyzed by using the following equation: C = L/(2.22 × 10^9 × RM), where C is the concentration of ADP or/and its metabolites (mg/kg), L is the LSC count (dpm), R is the specific activity of the administered dose (0.1 Ci/g), and M is the weight or volume of samples (kg or L). The results are expressed as mean ± SD. The elimination kinetics of terminal phase for ADP and its metabolites were conducted by using the WinNonlin linear regression program (Pharsight corporation, Statistical consultants, Inc., Kentucky, USA).

## [3H]c1c(Cc2cnc(N)nc2N)cc(OC)c(N(C)C)c1OC [^3H-ADP]
Carp Bile
  Ke of total residues: 0.38
Carp Bile, 0.25 d after 5 mg/kg b. w. for 7 days
  Concentrations of total residues: 334.6 ± 69.0 mg/kg and 334.60 ± 69.02 mg/kg
Carp Bile, 1 d after 5 mg/kg b. w. for 7 days
  Concentrations of total residues: 89.59 ± 3.87 mg/kg
Carp Bile, 3 d after 5 mg/kg b. w. for 7 days
  Concentrations of total residues: 24.33 ± 1.91 mg/kg
Carp Bile, 7 d after 5 mg/kg b. w. for 7 days
  Concentrations of total residues: 1.34 ± 0.29 mg/kg
Carp Bile, 14 d after 5 mg/kg b. w. for 7 days
  Concentrations of total residues: 0.13 ± 0.05 mg/kg
Carp Bile, 21 d after 5 mg/kg b. w. for 7 days
  Concentrations of total residues: 0.01 ± 0.00 mg/kg
Carp Blood
  Ke of total residues: 0.20
Carp Blood, 0.25 d after 5 mg/kg b. w. for 7 days
  Concentrations of total residues: 1.73 ± 0.18 mg/kg
Carp Blood, 1 d after 5 mg/kg b. w. for 7 days
  Concentrations of total residues: 1.06 ± 0.10 mg/kg
Carp Blood, 3 d after 5 mg/kg b. w. for 7 days
  Concentrations of total residues: 0.40 ± 0.08 mg/kg
Carp Blood, 7 d after 5 mg/kg b. w. for 7 days
  Concentrations of total residues: 0.19 ± 0.02 mg/kg
Carp Blood, 14 d after 5 mg/kg b. w. for 7 days
  Concentrations of total residues: 0.05 ± 0.01 mg/kg
Carp Branchia
  Ke of total residues: 0.23
Carp Branchia, 0.25 d after 5 mg/kg b. w. for 7 days
  Concentrations of total residues: 12.73 ± 1.93 mg/kg
Carp Branchia, 1 d after 5 mg/kg b. w. for 7 days
  Concentrations of total residues: 5.46 ± 0.84 mg/kg
Carp Branchia, 3 d after 5 mg/kg b. w. for 7 days
  Concentrations of total residues: 1.66 ± 0.08 mg/kg
Carp Branchia, 7 d after 5 mg/kg b. w. for 7 days
  Concentrations of total residues: 0.22 ± 0.04 mg/kg
Carp Branchia, 14 d after 5 mg/kg b. w. for 7 days
  Concentrations of total residues: 0.05 ± 0.00 mg/kg
Carp Branchia, 21 d after 5 mg/kg b. w. for 7 days
  Concentrations of total residues: 0.01 ± 0.00 mg/kg
Carp Colla piscis
  Ke of total residues: 0.24
Carp Colla piscis, 0.25 d after 5 mg/kg b. w. for 7 days
  Concentrations of total residues: 2.78 ± 0.76 mg/kg
Carp Colla piscis, 1 d after 5 mg/kg b. w. for 7 days
  Concentrations of total residues: 1.50 ± 0.22 mg/kg
Carp Colla piscis, 3 d after 5 mg/kg b. w. for 7 days
  Concentrations of total residues: 0.41 ± 0.04 mg/kg
Carp Colla piscis, 7 d after 5 mg/kg b. w. for 7 days
  Concentrations of total residues: 0.10 ± 0.02 mg/kg
Carp Colla piscis, 14 d after 5 mg/kg b. w. for 7 days
  Concentrations of total residues: 0.03 ± 0.01 mg/kg
Carp Heart
  Ke of total residues: 0.30
Carp Heart, 0.25 d after 5 mg/kg b. w. for 7 days
  Concentrations of total residues: 5.37 ± 0.50 mg/kg
Carp Heart, 1 d after 5 mg/kg b. w. for 7 days
  Concentrations of total residues: 2.58 ± 0.57 mg/kg
Carp Heart, 3 d after 5 mg/kg b. w. for 7 days
  Concentrations of total residues: 1.11 ± 0.08 mg/kg
Carp Heart, 7 d after 5 mg/kg b. w. for 7 days
  Concentrations of total residues: 0.34 ± 0.05 mg/kg
Carp Heart, 14 d after 5 mg/kg b. w. for 7 days
  Concentrations of total residues: 0.14 ± 0.02 mg/kg
Carp Heart, 21 d after 5 mg/kg b. w. for 7 days
  Concentrations of total residues: 0.01 ± 0.00 mg/kg
Carp Intestine
  Ke of total residues: 0.21
Carp Intestine, 1 d after 5 mg/kg b. w. for 7 days
  Concentrations of total residues: 5.35 ± 0.51 mg/kg
Carp Intestine, 3 d after 5 mg/kg b. w. for 7 days
  Concentrations of total residues: 1.85 ± 0.25 mg/kg
Carp Intestine, 7 d after 5 mg/kg b. w. for 7 days
  Concentrations of total residues: 0.42 ± 0.09 mg/kg
Carp Intestine, 14 d after 5 mg/kg b. w. for 7 days
  Concentrations of total residues: 0.16 ± 0.06 mg/kg
Carp Kidney
  Ke of total residues: 0.19
Carp Kidney, 0.25 d after 5 mg/kg b. w. for 7 days
  Concentrations of total residues: 47.64 ± 9.81 mg/kg
Carp Kidney, 1 d after 5 mg/kg b. w. for 7 days
  Concentrations of total residues: 8.30 ± 1.02 mg/kg
Carp Kidney, 3 d after 5 mg/kg b. w. for 7 days
  Concentrations of total residues: 3.83 ± 0.39 mg/kg
Carp Kidney, 7 d after 5 mg/kg b. w. for 7 days
  Concentrations of total residues: 1.57 ± 0.11 mg/kg
Carp Kidney, 14 d after 5 mg/kg b. w. for 7 days
  Concentrations of total residues: 0.72 ± 0.10 mg/kg
Carp Kidney, 21 d after 5 mg/kg b. w. for 7 days
  Concentrations of total residues: 0.10 ± 0.02 mg/kg
Carp Liver
  Ke of total residues: 0.10
Carp Liver, 0.25 d after 5 mg/kg b. w. for 7 days
  Concentrations of total residues: 15.59 ± 1.52 mg/kg
Carp Liver, 3 d after 5 mg/kg b. w. for 7 days
  Concentrations of total residues: 2.53 ± 0.21 mg/kg
Carp Liver, 7 d after 5 mg/kg b. w. for 7 days
  Concentrations of total residues: 0.40 ± 0.08 mg/kg
Carp Liver, 14 d after 5 mg/kg b. w. for 7 days
  Concentrations of total residues: 0.30 ± 0.05 mg/kg
Carp Liver, 21 d after 5 mg/kg b. w. for 7 days
  Concentrations of total residues: 0.09 ± 0.01 mg/kg
Carp Muscle
  Ke of total residues: 0.23
Carp Muscle, 0.25 d after 5 mg/kg b. w. for 7 days
  Concentrations of total residues: 2.26 ± 0.62 mg/kg
Carp Muscle, 1 d after 5 mg/kg b. w. for 7 days
  Concentrations of total residues: 1.96 ± 0.48 mg/kg
Carp Muscle, 3 d after 5 mg/kg b. w. for 7 days
  Concentrations of total residues: 0.96 ± 0.10 mg/kg
Carp Muscle, 7 d after 5 mg/kg b. w. for 7 days
  Concentrations of total residues: 0.43 ± 0.09 mg/kg
Carp Muscle, 14 d after 5 mg/kg b. w. for 7 days
  Concentrations of total residues: 0.08 ± 0.00 mg/kg
Carp Roe
  Ke of total residues: 0.16
Carp Roe, 0.25 d after 5 mg/kg b. w. for 7 days
  Concentrations of total residues: 4.74 ± 1.03 mg/kg
Carp Roe, 1 d after 5 mg/kg b. w. for 7 days
  Concentrations of total residues: 3.86 ± 0.76 mg/kg
Carp Roe, 3 d after 5 mg/kg b. w. for 7 days
  Concentrations of total residues: 2.24 ± 0.36 mg/kg
Carp Roe, 7 d after 5 mg/kg b. w. for 7 days
  Concentrations of total residues: 0.85 ± 0.40 mg/kg
Carp Roe, 14 d after 5 mg/kg b. w. for 7 days
  Concentrations of total residues: 0.47 ± 0.13 mg/kg
Carp Roe, 21 d after 5 mg/kg b. w. for 7 days
  Concentrations of total residues: 0.09 ± 0.01 mg/kg
Carp Scales
  Ke of total residues: 0.24
Carp Scales, 0.25 d after 5 mg/kg b. w. for 7 days
  Concentrations of total residues: 2.59 ± 0.32 mg/kg
Carp Scales, 1 d after 5 mg/kg b. w. for 7 days
  Concentrations of total residues: 2.01 ± 0.45 mg/kg
Carp Scales, 3 d after 5 mg/kg b. w. for 7 days
  Concentrations of total residues: 0.80 ± 0.04 mg/kg
Carp Scales, 7 d after 5 mg/kg b. w. for 7 days
  Concentrations of total residues: 0.29 ± 0.07 mg/kg
Carp Scales, 14 d after 5 mg/kg b. w. for 7 days
  Concentrations of total residues: 0.06 ± 0.01 mg/kg
Carp Skin
  Ke of total residues: 0.29
Carp Skin, 0.25 d after 5 mg/kg b. w. for 7 days
  Concentrations of total residues: 3.66 ± 0.62 mg/kg
Carp Skin, 1 d after 5 mg/kg b. w. for 7 days
  Concentrations of total residues: 2.82 ± 0.91 mg/kg
Carp Skin, 3 d after 5 mg/kg b. w. for 7 days
  Concentrations of total residues: 1.48 ± 0.16 mg/kg
Carp Skin, 7 d after 5 mg/kg b. w. for 7 days
  Concentrations of total residues: 0.87 ± 0.17 mg/kg
Carp Skin, 14 d after 5 mg/kg b. w. for 7 days
  Concentrations of total residues: 0.07 ± 0.01 mg/kg
Carp Spleen
  Ke of total residues: 0.23
Carp Spleen, 0.25 d after 5 mg/kg b. w. for 7 days
  Concentrations of total residues: 63.23 ± 2.89 mg/kg
Carp Spleen, 1 d after 5 mg/kg b. w. for 7 days
  Concentrations of total residues: 27.12 ± 4.89 mg/kg
Carp Spleen, 3 d after 5 mg/kg b. w. for 7 days
  Concentrations of total residues: 8.17 ± 0.59 mg/kg
Carp Spleen, 7 d after 5 mg/kg b. w. for 7 days
  Concentrations of total residues: 0.73 ± 0.17 mg/kg
Carp Spleen, 14 d after 5 mg/kg b. w. for 7 days
  Concentrations of total residues: 0.25 ± 0.05 mg/kg
Carp Spleen, 21 d after 5 mg/kg b. w. for 7 days
  Concentrations of total residues: 0.03 ± 0.00 mg/kg
